The values that follow come from US10189836B2, “Therapeutic compounds, compositions and methods of use thereof” (Genentech, Inc., priority 2015, dated 2019).

For test [1], the target named is isolated recombinant JAK1 kinase domain (Homo sapiens (Human), UniProt P23458). Put plainly: JAK1 enzyme assay (Caliper LabChip, Ki). It is filed as biochemical. Particulars: isolated recombinant JAK1 kinase domain, 1.5 nM enzyme, ATP 25 μM.
The target in test [2] is isolated recombinant JAK2 kinase domain (Homo sapiens (Human), UniProt O60674). Put plainly: JAK2 enzyme assay (Caliper LabChip, Ki). It is filed as biochemical. Particulars: isolated recombinant JAK2 kinase domain, 0.2 nM enzyme, ATP 25 μM.
Sequence of isolated recombinant JAK2 kinase domain (O60674 849-1124): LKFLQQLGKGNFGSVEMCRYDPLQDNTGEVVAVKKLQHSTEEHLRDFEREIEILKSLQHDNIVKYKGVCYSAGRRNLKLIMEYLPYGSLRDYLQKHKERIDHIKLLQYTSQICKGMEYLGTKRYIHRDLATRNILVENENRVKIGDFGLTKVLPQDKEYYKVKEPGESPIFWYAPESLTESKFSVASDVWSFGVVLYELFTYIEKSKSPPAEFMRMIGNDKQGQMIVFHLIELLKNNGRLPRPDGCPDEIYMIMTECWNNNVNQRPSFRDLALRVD

A word on the Ki: it is the equilibrium dissociation constant of an inhibitor or competing ligand from its target.

Sequence of isolated recombinant JAK1 kinase domain (P23458 875-1153): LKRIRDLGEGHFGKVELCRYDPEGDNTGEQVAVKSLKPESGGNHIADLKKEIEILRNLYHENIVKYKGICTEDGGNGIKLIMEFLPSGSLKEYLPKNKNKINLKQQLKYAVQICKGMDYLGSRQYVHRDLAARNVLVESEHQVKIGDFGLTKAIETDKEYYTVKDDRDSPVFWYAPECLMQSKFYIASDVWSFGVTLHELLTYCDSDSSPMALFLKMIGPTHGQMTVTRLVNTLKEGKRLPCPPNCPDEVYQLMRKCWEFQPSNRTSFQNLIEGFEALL

`CN1CCN(C(=O)Cn2cc(Nc3nc4c(N5CC6CCC(C5)N6C(=O)CC(F)(F)F)cccn4n3)cn2)CC1` [Example 12, 3,3,3-trifluoro-1-[3-[2-[[1-[2-(4-methylpiperazin-1-yl)-2-oxo-ethyl]pyrazol-4-yl]amino]-[1,2,4]triazolo[1,5-a]pyridin-8-yl]-3,8-diazabicyclo[3.2.1]octan-8-yl]propan-1-one]: the inhibitory constant (Ki) in test [1] is 0.7 nM; in test [2], 1.7 nM.

On to `CN1CCN(C(=O)Cn2cc(Nc3nc4c(N5CC6CCC(C5)N6C(=O)C5CC5C(F)(F)F)cccn4n3)cn2)CC1` (stereo not drawn) [Example 14, 1-(4-methylpiperazin-1-yl)-2-[4-[[8-[8-[2-(trifluoromethyl)cyclopropanecarbonyl]-3,8-diazabicyclo[3.2.1]octan-3-yl]-[1,2,4]triazolo[1,5-a]pyridin-2-yl]amino]pyrazol-1-yl]ethanone], for which the inhibition constant Ki in test [1] amounted to 1 nM; in test [2] it was 1.1 nM.

As to `CN1CCN(C(=O)Cn2cc(Nc3nc4c(N5CC6CCC(C5)N6C(=O)[C@H]5C[C@@H](C(F)(F)F)C5)cccn4n3)cn2)CC1` [Example 15, formic acid; 1-(4-methylpiperazin-1-yl)-2-[4-[[8-[8-[3-(trifluoromethyl)cyclobutanecarbonyl]-3,8-diazabicyclo[3.2.1]octan-3-yl]-[1,2,4]triazolo[1,5-a]pyridin-2-yl]amino]pyrazol-1-yl]ethanone], the Ki in test [1] was determined as 1.1 nM; in test [2], 3.7 nM.

Turning to `CN1CCN(C(=O)Cn2cc(Nc3nc4c(N5CC6CCC(C5)N6C(=O)CC5CC5(F)F)cccn4n3)cn2)CC1` (stereo not drawn) [Example 16, 2-(2,2-difluorocyclopropyl)-1-[3-[2-[[1-[2-(4-methylpiperazin-1-yl)-2-oxo-ethyl]pyrazol-4-yl]amino]-[1,2,4]triazolo[1,5-a]pyridin-8-yl]-3,8-diazabicyclo[3.2.1]octan-8-yl]ethanone], the Ki in test [1] is 1 nM; in test [2] it was 1.8 nM.

Turning to `CN1CCN(C(=O)Cn2cc(Nc3nc4c(N5CC6CC(C5)N6Cc5ccc(Cl)cc5)cccn4n3)cn2)CC1` [Example 34, 2-[4-[(8-[6-[(4-chlorophenyl)methyl]-3,6-diazabicyclo[3.1.1]heptan-3-yl]-[1,2,4]triazolo[1,5-a]pyridin-2-yl)amino]-1H-pyrazol-1-yl]-1-(4-methylpiperazin-1-yl)ethan-1-one], the Ki in test [1] is 68.8 nM; in test [2] it was 271 nM.

Turning to `CN1CCN(C(=O)Cn2cc(Nc3nc4c(N5CC6CCC(C5)N6C(=O)C5CC5(F)F)cccn4n3)cn2)CC1` (stereo not drawn) [Example 37, 2-[4-[[8-[8-(2,2-difluorocyclopropanecarbonyl)-3,8-diazabicyclo[3.2.1]octan-3-yl]-[1,2,4]triazolo[1,5-a]pyridin-2-yl]amino]pyrazol-1-yl]-1-(4-methylpiperazin-1-yl)ethanone], the values for the inhibition constant (Ki) in test [1] and in test [2] were 1.3 nM and 1.8 nM, respectively.

Consider `CN1CCN(C(=O)Cn2cc(Nc3nc4c(N5CC6CCC(C5)N6C(=O)C5(C(F)(F)F)CC5)cccn4n3)cn2)CC1` [Example 38, 1-(4-methylpiperazin-1-yl)-2-[4-[[8-[8-[1-(trifluoromethyl)cyclopropanecarbonyl]-3,8-diazabicyclo[3.2.1]octan-3-yl]-[1,2,4]triazolo[1,5-a]pyridin-2-yl]amino]pyrazol-1-yl]ethanone], for which the values for the Ki in test [1] and in test [2] were 1.3 nM and 1.8 nM, respectively.

As for `O=C(Cn1cc(Nc2nc3c(N4CC5CCC(C4)N5C(=O)N4CC(C(F)(F)F)C4)cccn3n2)cn1)N1CCN(C2CCOCC2)CC1` [Example 39, 1-(4-tetrahydropyran-4-ylpiperazin-1-yl)-2-[4-[[8-[8-[3-(trifluoromethyl)azetidine-1-carbonyl]-3,8-diazabicyclo[3.2.1]octan-3-yl]-[1,2,4]triazolo[1,5-a]pyridin-2-yl]amino]pyrazol-1-yl]ethanone], the Ki turned out to be 0.7 nM in test [1] and 0.4 nM in test [2].

Regarding `CN1CCN(C(=O)Cn2cc(Nc3nc4c(N5CC6CCCC(C5)N6C(=O)[C@H]5C[C@H](C(F)(F)F)C5)cccn4n3)cn2)CC1` [Example 40, 1-(4-methylpiperazin-1-yl)-2-[4-[[8-[9-[3-(trifluoromethyl)cyclobutanecarbonyl]-3,9-diazabicyclo[3.3.1]nonan-3-yl]-[1,2,4]triazolo[1,5-a]pyridin-2-yl]amino]pyrazol-1-yl]ethanone], the inhibition constant Ki in test [1] and in test [2] was 0.6 nM each time.

As for `O=C(Cn1cc(Nc2nc3c(N4CC5CCC(C4)N5C(=O)CCC(F)(F)F)cccn3n2)cn1)N1CCC(CN2CCOCC2)CC1` [Example 41, 4,4,4-trifluoro-1-[3-[2-[[1-[2[4-(morpholinomethyl)-1-piperidyl]-2-oxo-ethyl]pyrazol-4-yl]amino]-[1,2,4]triazolo[1,5-a]pyridin-8-yl]-3,8-diazabicyclo[3.2.1]octan-8-yl]butan-1-one], the Ki in test [1] amounted to 2.6 nM; in test [2], 4.6 nM.

In the case of `CN1CCN(C(=O)Cn2cc(Nc3nc4c(N5CC6CCC(C5)N6C(=O)Cc5ccncc5)cccn4n3)cn2)CC1` [Example 42, 1-[3-[2-[[1-[2-(4-methylpiperazin-1-yl)-2-oxo-ethyl]pyrazol-4-yl]amino]-[1,2,4]triazolo[1,5-a]pyridin-8-yl]-3,8-diazabicyclo[3.2.1]octan-pyridyl)ethanone], the Ki in test [1] was 1.6 nM; in test [2], 5.7 nM.

Take `CN1CCN(C(=O)Cn2cc(Nc3nc4c(N5CC6CCC(C5)C6C(=O)N5CC(C(F)(F)F)C5)cccn4n3)cn2)CC1` (stereo not drawn) [Example 43, 1-(4-methylpiperazin-1-yl)-2-(4-[[8-(8-[[3-(trifluoromethyl)azetidin-1-yl]carbonyl]-3-azabicyclo[3.2.1]octan-3-yl)-[1,2,4]triazolo[1,5-a]pyridin-2-yl]amino]-1H-pyrazol-1-yl)ethan-1-one]: the inhibition constant (Ki) was 1.1 nM in test [1] and 1.9 nM in test [2].

`O=C(Cn1cc(Nc2nc3c(N4CC5CCC(C4)N5C(=O)N4CC(C(F)(F)F)C4)cccn3n2)cn1)N1CCC(N2CCOCC2)CC1` [Example 44, 1-(4-morpholino-1-piperidyl)-2-[4-[[8-[8-[3-(trifluoromethyl)azetidine-1-carbonyl]-3,8-diazabicyclo[3.2.1]octan-3-yl]-[1,2,4]triazolo[1,5-a]pyridin-2-yl]amino]pyrazol-1-yl]ethanone]: the inhibition constant Ki in test [1] amounted to 0.9 nM; in test [2], 0.6 nM.

As to `CN1CCN(C(=O)Cn2cc(Nc3nc4c(N5CC6CCC(C5)N6C(=O)COCC(F)(F)F)cccn4n3)cn2)CC1` [Example 45, 1-(4-methylpiperazin-1-yl)-2-[4-[[8-[8-[2-(2,2,2-trifluoroethoxy)acetyl]-3,8-diazabicyclo[3.2.1]octan-3-yl]-[1,2,4]triazolo[1,5-a]pyridin-2-yl]amino]pyrazol-1-yl]ethanone], the figures for the Ki in test [1] and in test [2] were 1 nM and 3.5 nM, respectively.

Turning to `CN1CCN(C(=O)Cn2cc(Nc3nc4c(N5CC6CCC(C5)N6C(=O)C5CC(F)(F)C5)cccn4n3)cn2)CC1` [Example 46, 2-[4-[[8-[8-(3,3-difluorocyclobutanecarbonyl)-3-yl]-3,8-diazabicyclo[3.2.1]octan-[1,2,4]triazolo[1,5-a]pyridin-2-yl]amino]pyrazol-1-yl]-1-(4-methylpiperazin-1-yl)ethanone], the Ki in test [1] turned out to be 1.4 nM; in test [2] it was 1.7 nM.

Regarding `CC(CC(F)(F)F)C(=O)N1C2CCC1CN(c1cccn3nc(Nc4cnn(CC(=O)N5CCN(C)CC5)c4)nc13)C2` (stereo not drawn) [Example 47, 4,4,4-trifluoro-2-methyl-1-[3-[2-[[1-[2-(4-methylpiperazin-1-yl)-2-oxo-ethyl]pyrazol-4-yl]amino]-[1,2,4]triazolo[1,5-a]pyridin-8-yl]-3,8-diazabicyclo[3.2.1]octan-8-yl]butan-1-one], the results for the Ki in test [1] and in test [2] were 1.8 nM and 2 nM, respectively.

Regarding `CN1CCN(C(=O)Cn2cc(Nc3nc4c(N5C6CC5CN(C(=O)CCC(F)(F)F)C6)cccn4n3)cn2)CC1` [Example 48, 4,4,4-trifluoro-1-[6-[2-[[1-[2-(4-methylpiperazin-1-yl)-2-oxo-ethyl]pyrazol-4-yl]amino]-[1,2,4]triazolo[1,5-a]pyridin-8-yl]-3,6-diazabicyclo[3.1.1]heptan-3-yl]butan-1-one], the figures for the Ki in test [1] and in test [2] were more than 560 nM and more than 320 nM, respectively.

In the case of `CN1CCN(C(=O)Cn2cc(Nc3nc4c(N5CC6CCC(C5)N6C(=O)C5C6CC(F)(F)CC65)cccn4n3)cn2)CC1` (stereo not drawn) [Example 49, 2-[4-[[8-[8-(3,3-difluorobicyclo[3.1.0]hexane-6-carbonyl)-3,8-diazabicyclo[3.2.1]octan-3-yl]-[1,2,4]triazolo[1,5-a]pyridin-2-yl]amino]pyrazol-1-yl]-1-(4-methylpiperazin-1-yl)ethanone], the results for the Ki in test [1] and in test [2] were 1.5 nM and 4.1 nM, respectively.

With `CN1CCN(C(=O)Cn2cc(Nc3nc4c(N5CC6CCC(C5)N6C(=O)C5CCSC5)cccn4n3)cn2)CC1` (stereo not drawn) [Example 50, 1-(4-methylpiperazin-1-yl)-2-[4-[[8-[8-(tetrahydrothiophene-3-carbonyl)-3,8-diazabicyclo[3.2.1]octan-3-yl]-[1,2,4]triazolo[1,5-a]pyridin-2-yl]amino]pyrazol-1-yl]ethanone], the Ki in test [1] is 1.2 nM; in test [2] it was 1.5 nM.

For the compound `CN1CCN(C(=O)Cn2cc(Nc3nc4c(N5CC6CCC(C5)N6C(=O)C5CCC(F)(F)CC5)cccn4n3)cn2)CC1` [Example 51, 2-[4-[[8-[8-(4,4-difluorocyclohexanecarbonyl)-3,8-diazabicyclo[3.2.1]octan-3-yl]-[1,2,4]triazolo[1,5-a]pyridin-2-yl]amino]pyrazol-1-yl]-1-(4-methylpiperazin-1-yl)ethanone], the Ki was 2 nM in test [1] and 4.8 nM in test [2].

In the case of `CN1CCN(C(=O)Cn2cc(Nc3nc4c(N5CC6CCC(C5)N6C(=O)C5CCSCC5)cccn4n3)cn2)CC1` [Example 52, 1-(4-methylpiperazin-1-yl)-2-[4-[[8-[8-(tetrahydrothiopyran-4-carbonyl)-3,8-diazabicyclo[3.2.1]octan-3-yl]-[1,2,4]triazolo[1,5-a]pyridin-2-yl]amino]pyrazol-1-yl]ethanone], the Ki was determined as 3.1 nM in test [1] and 5.2 nM in test [2].
